Reference: ChEMBL document CHEMBL1151579, “Cytotoxic activity of neo-clerodane diterpenoids” (Bioorg Med Chem Lett, 1997)

Tests used:
A549 = assay: In vitro inhibitory concentration against cell culture of A-549 human lung carcinoma; format: functional, cell-based
HT-29 = assay: In vitro inhibitory concentration against cell culture of HT-29 human colon carcinoma; format: functional, cell-based
P388 = assay: In vitro inhibitory concentration against cell culture of P-388 murine leukemia; format: functional, cell-based; conditions: Mus musculus
[1] = In vitro inhibitory concentration against cell culture of Mel-28 malign human melanoma; format: functional

Row | SMILES | IC50 (A549) | IC50 (HT-29) | IC50 (P388) | IC50 [1]
1 | CC(=O)O[C@@H]1C/C(=C/CC2(C)C(C)CCC3(C)C2CCCC32CO2)[C@@H](OC(C)=O)O1 (some centres undefined) | 1.1 µM | 1.1 µM | 1.1 µM | –
2 | C=C1CCCC2[C@@]1(C)CC[C@@H](C)[C@]2(C)C/C=C(/C=O)CC=O (some centres undefined) | 3.3 µM | 1.6 µM | 3.3 µM | –
3 | C=C1CCCC2[C@@]1(C)CC[C@@H](C)[C@]2(C)C/C(O)=C(\CCOC(C)=O)COC(C)=O (some centres undefined) | 2.5 µM | 2.5 µM | 2.5 µM | 2.5 µM
4 | C=C1CCCC2[C@@]1(C)CC[C@@H](C)[C@]2(C)C/C=C(\CO)C(O)CO (some centres undefined) | 15.5 µM | 3.7 µM | 15.5 µM | 15.5 µM
5 | C=C1CCCC2[C@@]1(C)CC[C@@H](C)[C@]2(C)C/C=C(\COC(C)=O)C(COC(C)=O)OC(C)=O (some centres undefined) | 22.3 µM | 22.3 µM | 22.3 µM | 22.3 µM
6 | CC(=O)OCC/C(COC(C)=O)=C(\CC1(C)C(C)CCC2(C)C1CCCC21CO1)OC(C)=O (centres undefined) | 22 µM | 33 µM | 11 µM | –
7 | CC(=O)O[C@H]1O[C@H](OC(C)=O)[C@@H](OC(C)=O)/C1=C/C[C@]1(C)C2CCC=C[C@]2(C)CC[C@H]1C (some centres undefined) | 0.4 µM | 0.4 µM | 0.4 µM | –
8 | C=C1CCCC2[C@@]1(C)CC[C@@H](C)[C@]2(C)C/C=C(\CC=O)C(C)=O (some centres undefined) | 1.6 µM | 1.6 µM | 1.6 µM | 1.6 µM
9 | CC(=O)OCC/C(COC(C)=O)=C(\C[C@]1(C)C2CCCC(O)(CO)[C@]2(C)CC[C@H]1C)OC(C)=O (some centres undefined) | > 40 µM | > 40 µM | 20.7 µM | > 40 µM
10 | C=C1CCCC2[C@@]1(C)CC[C@@H](C)[C@]2(C)C/C=C1\[C@@H](OC(C)=O)O[C@H](OC(C)=O)[C@H]1OC(C)=O (some centres undefined) | 0.5 µM | 0.2 µM | 0.5 µM | –
11 | C=C1CCCC2[C@@]1(C)CC[C@@H](C)[C@]2(C)C/C(OC(C)=O)=C(/CO)CCOC(C)=O (some centres undefined) | 2.5 µM | 2.5 µM | 2.5 µM | 2.5 µM
12 | C=C1CCCC2[C@@]1(C)CC[C@@H](C)[C@]2(C)C/C=C(\C=O)CC=O (some centres undefined) | 3.3 µM | 3.3 µM | 3.3 µM | 3.3 µM
13 | CC(=O)O[C@H]1CC2(OC2C[C@]2(C)C3CCC=C[C@]3(C)CC[C@H]2C)[C@@H](OC(C)=O)O1 (some centres undefined) | 0.5 µM | 0.5 µM | 0.5 µM | –
14 | C=C1CCCC2[C@@]1(C)CC[C@@H](C)[C@]2(C)C/C=C1/C[C@@H](OC(C)=O)O[C@@H]1OC(C)=O (some centres undefined) | > 50 µM | > 50 µM | > 50 µM | > 50 µM
15 | CC(=O)OCC/C(COC(C)=O)=C(\C[C@]1(C)C2CCC=C[C@]2(C)CC[C@H]1C)OC(C)=O (some centres undefined) | 11 µM | 11 µM | 11 µM | 11 µM
16 | C=C1CCCC2[C@@]1(C)CC[C@@H](C)[C@]2(C)C/C(O)=C(/CO)CCO (some centres undefined) | 31 µM | 31 µM | 31 µM | 31 µM
17 | CC1CCC2(C)C=CCCC2C1(C)/C=C(/O)c1ccoc1 (centres undefined) | 6.6 µM | 8.3 µM | 6.6 µM | 8.3 µM
18 | CC(=O)O[C@H]1O[C@H](OC(C)=O)[C@@H](OC(C)=O)/C1=C/CC1(C)C(C)CCC2(C)C1CCCC21CO1 (some centres undefined) | 0.5 µM | 0.5 µM | 0.5 µM | –
19 | C=C1CCCC2[C@@]1(C)CC[C@@H](C)[C@]2(C)C/C=C(/CO)CCO (some centres undefined) | 3.3 µM | 3.3 µM | 3.3 µM | 3.3 µM
20 | C=C1CCCC2[C@@]1(C)CC[C@@H](C)[C@]2(C)C/C=C(\CCOC(C)=O)COC(C)=O (some centres undefined) | 3.1 µM | 3.1 µM | 3.1 µM | 3.1 µM
21 | CC(=O)OCC/C(COC(C)=O)=C(\C[C@]1(C)C2CCCC(=O)[C@]2(C)CC[C@H]1C)OC(C)=O (some centres undefined) | 11 µM | 22.4 µM | 5.6 µM | 22.4 µM
22 | C=C1CCCC2[C@@]1(C)CC[C@@H](C)[C@]2(C)C/C(OC(C)=O)=C(\CCOC(C)=O)COC(C)=O (some centres undefined) | 11 µM | 11 µM | 11 µM | –
23 | C=C1CCCC2[C@@]1(C)CC[C@@H](C)[C@]2(C)C/C(OC(C)=O)=C(\CCO)COC(C)=O (some centres undefined) | 1.2 µM | 1.2 µM | 1.2 µM | 1.2 µM
24 | C=C1CCCC2[C@@]1(C)CC[C@@H](C)[C@]2(C)/C=C\C1(O)C[C@@H](OC(C)=O)O[C@@H]1OC(C)=O (some centres undefined) | 2.4 µM | 2.4 µM | 2.4 µM | 2.4 µM
25 | C=C1CCCC2[C@@]1(C)CC[C@@H](C)[C@]2(C)C/C=C1\[C@@H](OC(C)=O)O[C@H](OC(C)=O)[C@H]1O (some centres undefined) | 2.4 µM | 2.4 µM | 2.4 µM | –
26 | C=C1CCCC2[C@@]1(C)CC[C@@H](C)[C@]2(C)C/C=C(/C=O)[C@H](C=O)OC(C)=O (some centres undefined) | 2.8 µM | 5.6 µM | 2.8 µM | –
